Assay results from patent publication US3960833A, “Butirosin A 3",5"-O-isopropylidene derivatives” (Bristol-Myers Company, priority 1975, dated 1976).
≈ marks a conversion by molar mass, not a printed value. Read-outs that look alike come from different tables or passages of the source.

Legend:
Format in all cases: cell-based
[1] = system: E. coli A20107; test: MIC by Steers agar-dilution method on Mueller-Hinton medium; details: Escherichia coli
Text: (§1) Illustrated below is a table showing the minimal inhibitory concentrations (MIC's) of butirosin A, 4'-deoxybutirosin A and compound 11 (BB-K186) against a variety of gram-positive and gram-negativebacteria as obtained by the Steers agar-dilution method on Mueller-Hinton medium.

[2] = system: E. coli A20732; test: as above; details: Escherichia coli
Text: as §1

[3] = system: E. coli A20895; test: as above; details: Escherichia coli
Text: as §1

[4] = system: E. coli JR35/C600; test: as above; details: Escherichia coli
Text: as §1

[5] = system: E. coli JR66/W677; test: as above; details: Escherichia coli
Text: as §1

[6] = system: E. coli ML1630; test: as above; details: Escherichia coli
Text: as §1

[7] = system: E. coli NIHJ; test: as above; details: Escherichia coli
Text: as §1

[8] = system: E. coli NR79/W677; test: as above; details: Escherichia coli
Text: as §1

[9] = system: E. coli PO1495; test: as above; details: Escherichia coli
Text: as §1

[10] = system: E. coli R5; test: as above; details: Escherichia coli
Text: as §1

[11] = system: Ent. cloacae A20364; test: as above; details: Enterobacter cloacae
Text: as §1

[12] = system: Ent. cloacae A21006; test: as above; details: Enterobacter cloacae
Text: as §1

[13] = system: K. pneumoniae 22-3038; test: as above; details: Klebsiella pneumoniae, 223038
Text: as §1

[14] = system: K. pneumoniae D11; test: as above; details: Klebsiella pneumoniae
Text: as §1

[15] = system: Pr. mirabilis A9554; test: as above; details: Proteus mirabilis
Text: as §1

[16] = system: Pr. morganii A20031; test: as above; details: Morganella morganii
Text: as §1

[17] = system: Pr. vulgaris A9436; test: as above; details: Proteus vulgaris
Text: as §1

[18] = system: Prov. stuartii A20894; test: as above; details: Providencia stuartii
Text: as §1

[19] = system: Ps. aeruginosa A20601; test: as above; details: Pseudomonas aeruginosa
Text: as §1

[20] = system: Ps. aeruginosa A20635; test: as above; details: Pseudomonas aeruginosa
Text: as §1

[21] = system: Ps. aeruginosa A20896; test: as above; details: Pseudomonas aeruginosa
Text: as §1

[22] = system: Ps. aeruginosa A9930; test: as above; details: Pseudomonas aeruginosa
Text: as §1

[23] = system: Ps. aeruginosa GN-315; test: as above; details: Pseudomonas aeruginosa, GN315
Text: as §1

[24] = system: Ps. aeruginosa No. 130; test: as above; details: Pseudomonas aeruginosa
Text: as §1

[25] = system: Pseudomonas sp. A20621; test: as above
Text: as §1

[26] = system: S. aureus A20239; test: as above; details: Staphylococcus aureus
Text: as §1

[27] = system: S. aureus D133; test: as above; details: Staphylococcus aureus
Text: as §1

[28] = system: S. aureus D137; test: as above; details: Staphylococcus aureus
Text: as §1

[29] = system: S. aureus D193; test: as above; details: Staphylococcus aureus
Text: as §1

[30] = system: S. aureus Smith; test: as above; details: Staphylococcus aureus
Text: as §1

[31] = system: Ser. marcescens A20019; test: as above; details: Serratia marcescens
Text: as §1

[32] = system: Ser. marcescens A21247; test: as above; details: Serratia marcescens
Text: as §1

[33] = system: a variety of gram-positive and gram-negative bacteria; test: Antibacterial activity overall (MIC, Steers agar-dilution method); details: in words
Text: as §1

[34] = system: Pseudomonas aeruginosa; test: Antibacterial activity against Pseudomonas aeruginosa (MIC, Steers agar-dilution method); details: in words
Text: as §1

SMILES: NCC[C@H](O)C(=O)N[C@@H]1C[C@H](N)[C@@H](O[C@H]2O[C@H](CN)[C@@H](O)C[C@H]2N)[C@H](O[C@@H]2O[C@H](CO)[C@H](O)[C@H]2O)[C@H]1O [Compound 11, 3'-deoxybutirosin A]
- MIC ([1]; E. coli A20107, Mueller-Hinton medium, read-out: MIC): 3.1 µg/mL (≈ 5.75 µM)
- MIC ([2]; E. coli A20732, Mueller-Hinton medium, read-out: MIC): 1.6 µg/mL (≈ 2.97 µM)
- MIC ([3]; E. coli A20895, Mueller-Hinton medium, read-out: MIC): 3.1 µg/mL (≈ 5.75 µM)
- MIC [4]: 0.8 µg/mL (≈ 1.48 µM)
- MIC [5]: 3.1 µg/mL (≈ 5.75 µM)
- MIC ([6]; E. coli ML1630, Mueller-Hinton medium, read-out: MIC): 3.1 µg/mL (≈ 5.75 µM)
- MIC ([7]; E. coli NIHJ, Mueller-Hinton medium, read-out: MIC): 1.6 µg/mL (≈ 2.97 µM)
- MIC [8]: > 100 µg/mL
- MIC [9]: 1.6 µg/mL (≈ 2.97 µM)
- MIC ([10]; E. coli R5, Mueller-Hinton medium, read-out: MIC): 3.1 µg/mL (≈ 5.75 µM)
- MIC ([11]; Ent. cloacae A20364, Mueller-Hinton medium, read-out: MIC): 1.6 µg/mL (≈ 2.97 µM)
- MIC ([12]; Ent. cloacae A21006, Mueller-Hinton medium, read-out: MIC): 3.1 µg/mL (≈ 5.75 µM)
- MIC ([13]; K. pneumoniae 22-3038, Mueller-Hinton medium, read-out: MIC): 3.1 µg/mL (≈ 5.75 µM)
- MIC ([14]; K. pneumoniae D11, Mueller-Hinton medium, read-out: MIC): 0.8 µg/mL (≈ 1.48 µM)
- MIC ([15]; Pr. mirabilis A9554, Mueller-Hinton medium, read-out: MIC): 1.6 µg/mL (≈ 2.97 µM)
- MIC ([16]; Pr. morganii A20031, Mueller-Hinton medium, read-out: MIC): 3.1 µg/mL (≈ 5.75 µM)
- MIC ([17]; Pr. vulgaris A9436, Mueller-Hinton medium, read-out: MIC): 0.4 µg/mL (≈ 0.741 µM)
- MIC ([18]; Prov. stuartii A20894, Mueller-Hinton medium, read-out: MIC): 25 µg/mL (≈ 46.3 µM)
- MIC ([19]; Ps. aeruginosa A20601, Mueller-Hinton medium, read-out: MIC): 12.5 µg/mL (≈ 23.2 µM)
- MIC ([20]; Ps. aeruginosa A20635, Mueller-Hinton medium, read-out: MIC): 25 µg/mL (≈ 46.3 µM)
- MIC ([21]; Ps. aeruginosa A20896, Mueller-Hinton medium, read-out: MIC): 50 µg/mL (≈ 92.7 µM)
- MIC ([22]; Ps. aeruginosa A9930, Mueller-Hinton medium, read-out: MIC): 0.8 µg/mL (≈ 1.48 µM)
- MIC ([23]; Ps. aeruginosa GN-315, Mueller-Hinton medium, read-out: MIC): > 100 µg/mL
- MIC ([24]; Ps. aeruginosa No. 130, Mueller-Hinton medium, read-out: MIC): 12.5 µg/mL (≈ 23.2 µM)
- MIC ([25]; Pseudomonas sp. A20621, Mueller-Hinton medium, read-out: MIC): 100 µg/mL (≈ 185 µM)
- MIC ([26]; S. aureus A20239, Mueller-Hinton medium, read-out: MIC): 3.1 µg/mL (≈ 5.75 µM)
- MIC ([27]; S. aureus D133, Mueller-Hinton medium, read-out: MIC): 3.1 µg/mL (≈ 5.75 µM)
- MIC ([28]; S. aureus D137, Mueller-Hinton medium, read-out: MIC): 12.5 µg/mL (≈ 23.2 µM)
- MIC ([29]; S. aureus D193, Mueller-Hinton medium, read-out: MIC): 1.6 µg/mL (≈ 2.97 µM)
- MIC ([30]; S. aureus Smith, Mueller-Hinton medium, read-out: MIC): 0.8 µg/mL (≈ 1.48 µM)
- MIC ([31]; Ser. marcescens A20019, Mueller-Hinton medium, read-out: MIC): 6.3 µg/mL (≈ 11.7 µM)
- MIC ([32]; Ser. marcescens A21247, Mueller-Hinton medium, read-out: MIC): 3.1 µg/mL (≈ 5.75 µM)
- antibacterial activity compared with butirosin A and 4'-deoxybutirosin A [33]: good antibacterial activity that in many respects is superior to butirosin A itself and in some respects superior to 4'-deoxybutirosin A
- antibacterial activity compared with butirosin A and 4'-deoxybutirosin A ([33]; listed as compound 11): equal to or superior in most respects to butirosin A and 4'-deoxybutirosin A
- activity against Pseudomonas aeruginosa [34]: particularly improved in its activity against Pseudomonas aeruginosa

SMILES: NCC[C@H](O)C(=O)N[C@@H]1C[C@H](N)[C@@H](O[C@H]2O[C@H](CN)[C@@H](O)[C@H](O)[C@H]2N)[C@H](O[C@@H]2O[C@H](CO)[C@H](O)[C@H]2O)[C@H]1O [Bu-1709A1, butirosin A]
- MIC ([1]; A20107): 50 µg/mL (≈ 90 µM)
- MIC ([2]; A20732): 1.6 µg/mL (≈ 2.88 µM)
- MIC ([3]; A20895): 3.1 µg/mL (≈ 5.58 µM)
- MIC [4]: 0.8 µg/mL (≈ 1.44 µM)
- MIC [5]: 100 µg/mL (≈ 180 µM)
- MIC ([6]; ML1630): 3.1 µg/mL (≈ 5.58 µM)
- MIC [7]: 1.6 µg/mL (≈ 2.88 µM)
- MIC [8]: > 100 µg/mL
- MIC [9]: 1.6 µg/mL (≈ 2.88 µM)
- MIC ([10]; R5): 3.1 µg/mL (≈ 5.58 µM)
- MIC ([11]; A20364): 1.6 µg/mL (≈ 2.88 µM)
- MIC ([12]; A21006): > 100 µg/mL
- MIC [13]: > 100 µg/mL
- MIC ([14]; D11): 0.8 µg/mL (≈ 1.44 µM)
- MIC ([15]; A9554): 1.6 µg/mL (≈ 2.88 µM)
- MIC ([16]; A20031): 1.6 µg/mL (≈ 2.88 µM)
- MIC ([17]; A9436): 0.4 µg/mL (≈ 0.72 µM)
- MIC ([18]; A20894): > 100 µg/mL
- MIC ([19]; A20601): 50 µg/mL (≈ 90 µM)
- MIC ([20]; A20635): > 100 µg/mL
- MIC ([21]; A20896): > 100 µg/mL
- MIC ([22]; A9930): 6.3 µg/mL (≈ 11.3 µM)
- MIC [23]: > 100 µg/mL
- MIC ([24]; NO.130): 25 µg/mL (≈ 45 µM)
- MIC ([25]; Pseudomonas, SP.A20621): 100 µg/mL (≈ 180 µM)
- MIC ([26]; A20239): 25 µg/mL (≈ 45 µM)
- MIC ([27]; D133): 6.3 µg/mL (≈ 11.3 µM)
- MIC ([28]; D137): 25 µg/mL (≈ 45 µM)
- MIC ([29]; D193): 3.1 µg/mL (≈ 5.58 µM)
- MIC [30]: 0.8 µg/mL (≈ 1.44 µM)
- MIC ([31]; A20019): 6.3 µg/mL (≈ 11.3 µM)
- MIC ([32]; A21247): 6.3 µg/mL (≈ 11.3 µM)
